This passage reports pest or weed control, inhibition in vivo and EC80 results from patent publication US10287276B2, “Heteroaryl-1,2,4-triazole and heteroaryl-tetrazole compounds for controlling ectoparasites” (Elanco Tiergesundheit AG, priority 2016, dated 2019).

For test [1], the system named is Ctenocephalides Felis (Cat Flea). The test is described as follows: Activity in vitro against Ctenocephalides felis (cat flea), Assay A. Particulars: adult fleas fed on treated blood for 24 h; for pest or weed control at 100 ppm: Ctenocephalides felis, dead fleas counted, read-out: efficacy (EC80). On the procedure:
Activity In Vitro Against Ctenocephalides Felis (Cat Flea)—Assay A
A mixed adult population of fleas is placed in a suitably formatted 96-well plate allowing fleas to access and feed on treated blood via an artificial feeding system. Fleas are fed on treated blood for 24 h, after which the compound effect is recorded. Insecticidal activity is determined on the basis of the number of dead fleas recovered from the feeding system.

The subject of test [2] is Engorged Female Rhipicephalus microplus (Cattle Tick). Briefly: Activity in vitro against engorged female Rhipicephalus microplus (cattle tick), contact test. The note with it: 672 h, organophosphorous-resistant Ultimo strain, evaluation 28 days later on mortality, oviposition and hatched larvae, read-out: efficacy (EC80). As for the experimental part:
Activity In Vitro Against Engorged Female Rhipicephalus microplus (Cattle Tick)
A contact test is performed by pre-coating 6-well microplates with serial dilution of the compound to be evaluated for anti-parasitic activity. 10 engorged female ticks of the organophosphorous-resistant Ultimo strain are distributed to each well in triplicates. Plates are then incubated at 28° C. and 80% relative humidity. Evaluation takes place 28 days later based on mortality, oviposition and hatched larvae. […] Activity In Vivo Against Rhipicephalus sanguineus Nymphs on Mongolian Gerbils (Meriones unguiculatus) (Spray Application)

For test [3], the system named is Rhipicephalus sanguineus (Dog Tick). The test is described as follows: Activity in vitro against Rhipicephalus sanguineus (dog tick), Assay A, contact test. Particulars: Rhipicephalus sanguineus, 168 h, at 100 ppm, adult ticks, 28° C. and 80% relative humidity for 7 days, read-out: efficacy (EC80). On the procedure:
Activity In Vitro Against Rhipicephalus sanguineus (Dog Tick)—Assay A
A contact test is performed by pre-coating microplate with serial dilution of compound allowing evaluating anti-parasitic activity by contact against ticks. A mixed adult tick population is then distributed to each well of the plate and incubated at 28° C. and 80% relative humidity for 7 days, during which the effect of the test compound is monitored. Acaricidal activity is confirmed if and when adult ticks are dead.

For test [4], the system named is Lucilla Cuprina (Australian sheep blowfly). The test is described as follows: Activity in vitro against Lucilla cuprina (Australian sheep blowfly), Assay A. The note with it: Lucilia cuprina, 96 h; at 32 ppm; eggs on agar-based medium, 4 days at 28° C. and 60% relative humidity; read-out: efficacy (EC80). On the procedure: Activity in vitro against Lucilla Cuprina (Australian sheep blowfly)—Assay A
Freshly laid blowfly eggs are used to seed a suitably formatted microplate containing the test substances to be evaluated for antiparasitic activity. Each compound is tested by serial dilution in order to determine its minimum efficacy dose. The test compounds are embedded in an agar-based nutritive medium allowing the full development of the eggs into 3rd instar larvae. The incubation lasts for 4 days at 28° C. and 60% relative humidity. Egg-hatching and ensuing larval development are also recorded to identify a possible growth-regulating activity.

Test [5] has as its system Rhipicephalus sanguineus Nymphs. The test is described as follows: Activity in vivo against Rhipicephalus sanguineus nymphs on Mongolian gerbils. The note with it: topical, 0 h, pour on application day 0, tick number reduction vs placebo, Abbott's formula, read-out: efficacy (EC90). On the procedure: On day 0, gerbils are treated with the test compound at a given dose by pour on application. On day +1 (+2), the animals are infested with nymphs of R. sanguineus. Ticks are left on the animals until full repletion. Seven days after infestation nymphs dropped off fully engorged are collected and counted. They are kept until molting to also evaluate growth regulating activity of the test compound. Efficacy in killing (and growth regulating) is expressed as a tick number (and molted tick number) reduction in comparison with a placebo treated group, using the Abbott's formula:
n=number of live ticks. T=treated group. Co=control/placebo group.

The next test has as its system Lice (Polyplax serrata). The test is described as follows: Activity in vivo against lice (Polyplax serrata) in mice (topical). The note with it: pour-on application, live lice on day +4 and +14, Henderson & Tilton formula, read-out: efficacy (EC90). As for the experimental part: Activity In Vivo Against Lice (Polyplax serrata) in Mice (Topical) Mice naturally infected with P. serrata are treated with the formulated test compound on day 0 by pour-on application. On day +4 and +14, efficacy is evaluated by counting the number of live lice under a binocular. Efficacy at the two time points is expressed as a comparison of lice numbers counted on the same mouse before treatment, using the Henderson & Tilton formula, taking also into account lice numbers found on mice treated with the empty formulation (placebo group): [formula] n=number of lice, T=treated group, Co=control/placebo group.

Regarding `CC(c1ncnn1-c1ccccn1)N(CC1CC1)C(=O)c1cc(C(F)(F)F)cc(C(F)(F)F)c1` (centres unmarked) [Example 1, N-(Cyclopropylmethyl)-N-[1-[2-(2-pyridyl)-1,24-triazol-3-yl]ethyl]-3,5-bis(trifluoromethyl)benzamide], the pest or weed control at 100 ppm in test [1] and in test [3] was over 80% throughout. Moreover, in test [2], the pest or weed control at 200 ppm is over 80%. The pest or weed control at 32 ppm in test [4] was over 80%. Also, the inhibition in vivo at 32 mg/kg (in test [5]; with Lice (Polyplax serrata)) was over 90% throughout.
As to `CC(c1ncnn1-c1ccccn1)N(CC1CC1)C(=O)c1cc(Cl)cc(OC(F)(F)F)c1` (centres unmarked) [Example 10, 3-Chloro-N-(cyclopropylmethyl)-N-[1-[2-(2-pyridyl)-1,2,4-triazol-3-yl]ethyl]-5-(trifluoromethoxy)benzamide], the pest or weed control at 100 ppm in test [1] and in test [3] was over 80% in each case. For the same molecule, the pest or weed control at 200 ppm in test [2] is over 80%. Besides, the pest or weed control at 32 ppm in test [4] was over 80%. Also, the inhibition in vivo at 32 mg/kg (in test [5]; with Lice (Polyplax serrata)) was over 90% each time.
Consider `CC(c1ncnn1-c1ccccn1)N(CCF)C(=O)c1cc(C(F)(F)F)cc(C(F)(F)F)c1` (centres unmarked) [Example 11, N-(2-Fluoroethyl)-N-[1-[2-(2-pyridyl)-1,2,4-triazol-3-yl]ethyl]-3,5-bis(trifluoromethyl)benzamide], for which the pest or weed control at 100 ppm in test [1] and in test [3] was over 80% throughout. In test [2], the pest or weed control at 200 ppm is over 80%. Further, the pest or weed control at 32 ppm in test [4] was over 80%. Moreover, the inhibition in vivo at 32 mg/kg (in test [5]; in the test on Lice (Polyplax serrata)) was over 90% throughout.
On to `CC(c1ncnn1-c1ccccn1)N(CCC(F)(F)F)C(=O)c1cc(C(F)(F)F)cc(C(F)(F)F)c1` (centres unmarked) [Example 12, N-[1-[2-(2-Pyridyl)-1,2,4-triazol-3-yl]ethyl]-3,5-bis(trifluoromethyl)-N-(3,3,3-trifluoropropyl)benzamide], for which, in test [2], the pest or weed control at 200 ppm is over 80%. Besides, the pest or weed control at 100 ppm in test [3] was over 80%. Moreover, the pest or weed control at 32 ppm in test [4] is over 80%. Moreover, the inhibition in vivo at 32 mg/kg (in test [5]; with Lice (Polyplax serrata)) was over 90% each time.
In the case of `CC(c1ncnn1-c1ccccn1)N(CC1CC1(F)F)C(=O)c1cc(C(F)(F)F)cc(C(F)(F)F)c1` (centres unmarked) [Example 16, N-[(2,2-Difluorocyclopropyl)methyl]-N-[1-[2-(2-pyridyl)-1,2,4-triazol-3-yl]ethyl]-3,5-bis(trifluoromethyl)benzamide], in test [1], the pest or weed control at 100 ppm was over 80%. In addition, the pest or weed control at 200 ppm in test [2] was over 80%. For the same molecule, the pest or weed control at 32 ppm in test [4] is over 80%. Further, the inhibition in vivo at 32 mg/kg (in test [5]; with Lice (Polyplax serrata)) was over 90% throughout.
Regarding `C#CCN(C(=O)c1cc(Cl)cc(OC(F)(F)F)c1)C(C)c1ncnn1-c1ccccn1` (centres unmarked) [Example 18, 3-Chloro-N-prop-2-ynyl-N-[1-[2-(2-pyridyl)-1,2,4-triazol-3-yl]ethyl]-5-(trifluoromethoxy)benzamide], in test [1], the pest or weed control at 100 ppm was over 80% and the EC80 was determined as 10 ppm. Moreover, in test [2], the pest or weed control at 200 ppm was over 80%. Further, the pest or weed control at 32 ppm in test [4] was over 80%. Moreover, the inhibition in vivo at 32 mg/kg in test [5] was over 90%. Further, the inhibition in vivo at 32 mg/kg in the test with Lice (Polyplax serrata) was over 90%.
`CC(c1ncnn1-c1ncccn1)N(CCF)C(=O)c1cc(C(F)(F)F)cc(C(F)(F)F)c1` (centres unmarked) [Example 19, N-(2-Fluoroethyl)-N-[1-(2-pyrimidin-2-yl-1,2,4-triazol-3-yl]ethyl]-3,5-bis(trifluoromethyl)benzamide]: the pest or weed control at 100 ppm in test [1] and in test [3] was over 80% each time. The pest or weed control at 200 ppm in test [2] is over 80%. The pest or weed control at 32 ppm in test [4] is over 80%. Also, the inhibition in vivo at 32 mg/kg (in test [5]; with Lice (Polyplax serrata)) was over 90% each time.
On to `CC(c1ncnn1-c1ncccn1)N(CCC(F)(F)F)C(=O)c1cc(C(F)(F)F)cc(C(F)(F)F)c1` (centres unmarked) [Example 20, N-[1-(2-Pyrimidin-2-yl-1,2,4-triazol-3-yl)ethyl]-3,5-bis(trifluoromethyl)-N-(3,3,3-trifluoropropyl)benzamide], for which the pest or weed control at 100 ppm in test [1] and in test [3] was over 80% in each case. Moreover, the pest or weed control at 200 ppm in test [2] was over 80%. For the same molecule, in test [4], the pest or weed control at 32 ppm is over 80%. For the same molecule, the inhibition in vivo at 32 mg/kg (in test [5]; with Lice (Polyplax serrata)) was over 90% each time.
As for `CC(c1ncnn1-c1ncccn1)N(CC1CC1)C(=O)c1cncc(C(F)(F)F)c1` (centres unmarked) [Example 28, N-(Cyclopropylmethyl)-N-[1-(2-pyrimidin-2-yl-1,2,4-triazol-3-yl)ethyl]-5-(trifluoromethyl)pyridine-3-carboxamide], the pest or weed control at 100 ppm in test [1] and in test [3] was over 80% each time. The pest or weed control at 32 ppm in test [4] is over 80%. Besides, the inhibition in vivo at 32 mg/kg (in test [5]; in the test on Lice (Polyplax serrata)) was over 90% throughout.
Take `C#CCN(C(=O)c1cc(C(F)(F)F)cc(C(F)(F)F)c1)C(C)c1ncnn1-c1ncccn1` (centres unmarked) [Example 35, N-Prop-2-ynyl-N-[1-(2-pyrimidin-2-yl-1,2,4-triazol-3-yl)ethyl]-3,5-bis(trifluoromethyl)benzamide]: the pest or weed control at 100 ppm in test [1] and in test [3] was over 80% throughout. The pest or weed control at 200 ppm in test [2] was over 80%. The pest or weed control at 32 ppm in test [4] is over 80%. The inhibition in vivo at 32 mg/kg (in test [5]; with Lice (Polyplax serrata)) was over 90% in each case.
On to `CC(c1ncnn1-c1ncccn1)N(CC1CC1)C(=O)c1cc(Cl)cc(OC(F)(F)F)c1` (centres unmarked) [Example 37, 3-chloro-N-(cyclopropylmethyl)-N-[1-(2-pyrimidin-2-yl-1,2,4-triazol-3-yl)ethyl]-5-(trifluoromethoxy)benzamide], for which the pest or weed control at 100 ppm in test [1] and in test [3] was over 80% in each case. The pest or weed control at 200 ppm in test [2] was over 80%. For the same molecule, the pest or weed control at 32 ppm in test [4] is over 80%. For the same molecule, the inhibition in vivo at 32 mg/kg (in test [5]; in the test on Lice (Polyplax serrata)) was over 90% throughout.
`COc1cnc(-n2ncnc2C(C)N(CC2CC2)C(=O)c2cc(C(F)(F)F)cc(C(F)(F)F)c2)nc1` (centres unmarked) [Example 39, N-(Cyclopropylmethyl)-N-[1-[2-(5-methoxypyrimidin-2-yl)-1,2,4-triazol-3-yl]ethyl]-3,5-bis(trifluoromethyl)benzamide]: the pest or weed control at 100 ppm in test [1] and in test [3] was over 80% in each case. For the same molecule, in test [2], the pest or weed control at 200 ppm is over 80%. The pest or weed control at 32 ppm in test [4] is over 80%. In addition, the inhibition in vivo at 32 mg/kg (in test [5]; in the test on Lice (Polyplax serrata)) was over 90% throughout.
In the case of `C[C@@H](c1ncnn1-c1ncccn1)N(CC1CC1)C(=O)c1cc(C(F)(F)F)cc(C(F)(F)F)c1` [Example 49, N-(Cyclopropylmethyl)-N-[(1S)-1-(2-pyrimidin-2-yl-1,2,4-triazol-3-yl)ethyl]-3,5-bis(trifluoromethyl)benzamide], the pest or weed control at 100 ppm in test [1] and in test [3] was over 80% each time. Further, in test [4], the pest or weed control at 32 ppm was over 80%. Moreover, the inhibition in vivo at 32 mg/kg (in test [5]; in the test with Lice (Polyplax serrata)) was over 90% throughout.
